{
  "source": "patent US20230257444A1",
  "about": "“FUSION PROTEIN AND COMBINATIONS THEREOF” (Agency for Science, Technology and Research, priority 2020, published 2023)",
  "key": {"SC5314 Candida albicans [1]": {"system": "SC5314 Candida albicans", "test": "In vivo mouse monotherapy survival model (haematogenously disseminated candidiasis)", "parameters": "species or system Balb/c mice", "description": "9 week old female Balb/c mice (InVivos, Singapore) were injected intraperitoneally with 1, 2 or 4 mg hDectin1-Fc in groups of 8 and the drug was allowed to distribute within the mice till its peak concentration at 2 hours based on the pharmacokinetic data. The mice were then injected intravenously with 0.5, 0.25 or 0.1 milion SC5314 Candida albicans cells to achieve a haematogenously disseminated candidiasis model. Another set of mice were injected with 0.5, 1, 2 mg hDectin1-Fc followed by intravenous injection with SC5314 Candida albicans 2 hours later. […] The mice were observed daily and moribund mice were euthanized and counted as dead the following day. Kaplan-Meier survival plots were made to track the survival overtime of the mice. Statistical analysis of the difference between mice treated with hDectin1-Fc or untreated was done with the Mantel-Cox log rank test.\nTo examine the effect of hDectin1-Fc passive immunization against reducing the fatality of haematogenously disseminated candidiasis, a Balb/c murine model of hDectin1-Fc at various doses in relation to Candida albicans inoculum was used. […] An untreated group without hDectin1-Fc but infected with the respective inoculum of Candida albicans was used as a control in each experimental set (FIG. 15). Survival in each group was monitored twice daily until all the mice had died or there was survival of 2 weeks from the last death. Moribund mice were euthanized and counted as part of the following day. […] The negative effect on survival of a high dose of hDectin1-Fc in relation to fungal inoculum is most apparent in the 4 mg hDectin1-Fc dose with 0.1 million Candida albicans (FIG. 15C) and 2 mg hDectin1-Fc with 0.05 million Candida albicans inoculum (FIG. 15D). […] The proximity between the 2 mg and 1 mg curves have a growing divergence as the fungal burden is reduced from 0.5 to 0.05 million (FIG. 15A-D)."}, "SC5314 Candida albicans [2]": {"system": "SC5314 Candida albicans", "test": "In vitro co-culture CFU assay of human primary immune cells against Candida albicans", "assay_type": "cell-based", "conditions": "1 hr; for fungicidal activity (CFU): absence or presence of hDectin1-Fc; for reduction in CFU: between hDectin1-Fc 0 μg/ml and 1000 µg/ml, 37° C.", "description": "Macrophage assay: Human peripheral blood CD14+ monocytes were cultured at 1×10^6 cells/mL in 5 mL of ImmunoCult™-SF Macrophage Differentiation Medium with Human Recombinant M-CSF at 50 ng/ml in a T-25 flask at 37° C. in a 5% CO2 incubator. On Day 4, 2.5 mL of fresh ImmunoCult™-SF Macrophage Differentiation Medium was added to the flask. On Day 6, M1 activation was initiated with the addition of 50 ng/mL IFN-γ. On Day 8, the macrophages were treated with ACCUTASE and scrapped from the flask. The cells were centrifuged and resuspended in RPMI medium with 10% FBS and seeded into Eppendorf 96 well plates at 10^5 cells/well.\nNK cell assay: Human Peripheral Blood CD56+NK Cells 1×10^6 cells/mL in 5 mL of ImmunoCult™-XF T Cell Expansion Medium with Human Recombinant IL-2 at 500 IU/ml in a T-25 flask at 37° C. in a 5% CO2 incubator for 7 days. Additional fresh media was added on day 4. The cells were centrifuged and resuspended in RPMI medium with 10% FBS and seeded into Eppendorf 96 well plates at 10^5 cells/well.\nMonocyte assay: Human peripheral blood CD14+ Monocytes were cultured at 1×10^6 cells/mL in 5 mL of ImmunoCult™-SF Macrophage Differentiation Medium with Human Recombinant M-CSF at 10 ng/ml in a T-25 flask at 37° C. in a 5% CO2 incubator for 4 days. The cells were centrifuged and resuspended in RPMI medium with 10% FBS and seeded into Eppendorf 96 well plates at 10^5 cells/well.\nNeutrophil assay: Human peripheral neutrophils were extracted from Human […] using EasySep™ Direct Human Neutrophil Isolation Kit as per manufacturer's protocol. The isolated neutrophils were centrifuged and resuspended in RPMI medium with 10% FBS and G-CSF and seeded into Eppendorf 96 well plates at 10^5 cells/well.\nThe co-culture CFU assay involves the addition of 10^5 cells/well of SC5314 Candida albicans cells to wells containing 10^5 cells/well of primary immune cells with final concentration of hDectin1-Fc at […] in a 96 well plate. The assay was incubated for 1 hr at 37° C. in a 5% CO2 atmosphere incubator. Samples were taken from each well at the end of the incubation and diluted accordingly before plating on YPD agar plates. The colonies were counted the following day. Each assay was done thrice and the average taken.\nTo evaluate the capability of the hDectin1-Fc fusion protein in enhancing immune cell anti-candida function, 10^5 human primary immune cells were co-cultured with 10^5 Candida albicans in a 1 hr long assay incubated at 37° C. with varying concentrations of hDectin1-Fc from […]. The surviving Candida cells were diluted and plated and the colony forming units (CFU) used as a measure of fungicidal activity (FIG. 12). […]"}},
  "data": [
    {"substance": "hDectin1-Fc: soluble dimeric fusion protein: human Dectin-1 receptor polypeptide (aa 73-247) fused to human IgG1 Fc via hinge; SEQ ID NO: 5", "values": [
      {"measurement": "survival curve", "setting": "SC5314 Candida albicans [1]; 0.05 mg hDectin1-Fc, subacute inoculum of 0.05 million Candida albicans cells", "value": "prominent shift in the survival curve"},
      {"measurement": "survival (rate of death vs untreated group)", "setting": "SC5314 Candida albicans [1]; 2 mg hDectin1-Fc i.p., 0.05 million Candida albicans i.v. (FIG. 15D)", "value": "rate of death was greater than the corresponding untreated group"},
      {"measurement": "survival (rate of death vs untreated group)", "setting": "SC5314 Candida albicans [1]; 4 mg hDectin1-Fc i.p., 0.1 million Candida albicans i.v. (FIG. 15C)", "value": "rate of death was greater than the corresponding untreated group"},
      {"measurement": "survivability", "setting": "SC5314 Candida albicans [1]; hDectin1-Fc at the appropriate dose, passive immunization 2 hours before challenge", "value": "able to improve survivability"},
      {"measurement": "survival, 1 mg dose versus 2 mg dose", "setting": "SC5314 Candida albicans [1]; lethal infection model, 0.5 million Candida albicans cells (FIG. 15A)", "value": "marginal optimal therapeutic effect of the 1 mg dose over the 2 mg dose"},
      {"measurement": "fungicidal activity (CFU)", "setting": "SC5314 Candida albicans [2]; human NK cells", "value": "did not demonstrate any appreciable fungicidal activity"},
      {"measurement": "fungicidal activity (CFU)", "setting": "SC5314 Candida albicans [2]; human monocytes", "value": "did not demonstrate any appreciable fungicidal activity"},
      {"measurement": "reduction in CFU", "setting": "SC5314 Candida albicans [2]; human primary macrophages", "value": "~50", "unit": "%"},
      {"measurement": "reduction in CFU", "setting": "SC5314 Candida albicans [2]; human primary neutrophils", "value": "~50", "unit": "%"}
    ]}
  ]
}
